Measured values reported in the NIST ThermoML archive (doi:10.1016/j.fluid.2009.08.016).
Numbers after ± are expanded uncertainties.

Tests used:
[1] = Crystal; DTA
[2] = Molar enthalpy of transition or fusion; conditions: Crystal; DSC

CC(C)CCC[C@@H](C)[C@H]1CC[C@H]2[C@@H]3CC=C4C[C@@H](O)CC[C@]4(C)[C@H]3CC[C@]12C [.DELTA.5-cholesten-3β-ol]
Normal melting temperature [1]: 148.6 ± 0.5 °C | Molar enthalpy of transition or fusion [2]: 6.81 ± 0.191 kcal/mol
